Data as given in ChEMBL document CHEMBL3352227, “Synthesis, antimycobacterial and antibacterial evaluation of l-[(1R, 2S)-2-fluorocyclopropyl]fluoroquinolone derivatives containing an oxime functional moiety” (Eur J Med Chem, 2014).
Converted amounts (≈) assume the structure as drawn.

Legend:
Type in all cases: functional
Escherichia coli [1] = assay: Antibacterial activity against extended-spectrum beta-lactamase producing Escherichia coli 12-14 after 18 to 24 hrs by standard twofold serial dilution method
Klebsiella pneumoniae [2] = assay: Antibacterial activity against extended-spectrum beta-lactamase producin Klebsiella pneumoniae 12-14 after 18 to 24 hrs by standard twofold serial dilution method
Escherichia coli [3] = assay: Antibacterial activity against extended-spectrum beta-lactamase producing Escherichia coli 12-15 after 18 to 24 hrs by standard twofold serial dilution method
Staphylococcus aureus [4] = assay: Antibacterial activity against methicillin-sensitive Staphylococcus aureus 12-2 after 18 to 24 hrs by standard twofold serial dilution method
Pseudomonas aeruginosa [5] = assay: Antibacterial activity against Pseudomonas aeruginosa 12-12 after 18 to 24 hrs by standard twofold serial dilution method
Klebsiella pneumoniae [6] = assay: Antibacterial activity against extended-spectrum beta-lactamase producin Klebsiella pneumoniae 12-7 after 18 to 24 hrs by standard twofold serial dilution method
Staphylococcus aureus [7] = assay: Antibacterial activity against methicillin-sensitive Staphylococcus aureus 12-1 after 18 to 24 hrs by standard twofold serial dilution method
[8] = tested on: Staphylococcus epidermidis; assay: Antibacterial activity against methicillin-sensitive Staphylococcus epidermidis 12-3 after 18 to 24 hrs by standard twofold serial dilution method
Klebsiella pneumoniae [9] = assay: Antibacterial activity against Klebsiella pneumoniae 12-1 after 18 to 24 hrs by standard twofold serial dilution method
Klebsiella pneumoniae [10] = assay: Antibacterial activity against Klebsiella pneumoniae 12-4 after 18 to 24 hrs by standard twofold serial dilution method
Escherichia coli [11] = assay: Antibacterial activity against Escherichia coli 12-1 after 18 to 24 hrs by standard twofold serial dilution method
Escherichia coli [12] = assay: Antibacterial activity against Escherichia coli ATCC 25922 after 18 to 24 hrs by standard twofold serial dilution method
Streptococcus pneumoniae [13] = assay: Antibacterial activity against Streptococcus pneumoniae 12-18 after 18 to 24 hrs by standard twofold serial dilution method
Escherichia coli [14] = assay: Antibacterial activity against extended-spectrum beta-lactamase producing Escherichia coli 12-3 after 18 to 24 hrs by standard twofold serial dilution method
Staphylococcus aureus [15] = assay: Antibacterial activity against methicillin-sensitive Staphylococcus aureus 12-5 after 18 to 24 hrs by standard twofold serial dilution method
Pseudomonas aeruginosa [16] = assay: Antibacterial activity against Pseudomonas aeruginosa 12-14 after 18 to 24 hrs by standard twofold serial dilution method
Staphylococcus aureus [17] = assay: Antibacterial activity against methicillin-resistant Staphylococcus aureus 12-5 after 18 to 24 hrs by standard twofold serial dilution method
Escherichia coli [18] = assay: Antibacterial activity against extended-spectrum beta-lactamase producing Escherichia coli 12-2 after 18 to 24 hrs by standard twofold serial dilution method
[19] = tested on: Staphylococcus epidermidis; assay: Antibacterial activity against methicillin-sensitive Staphylococcus epidermidis 12-6 after 18 to 24 hrs by standard twofold serial dilution method
Klebsiella pneumoniae [20] = assay: Antibacterial activity against Klebsiella pneumoniae 12-2 after 18 to 24 hrs by standard twofold serial dilution method
Staphylococcus aureus [21] = assay: Antibacterial activity against methicillin-resistant Staphylococcus aureus 12-4 after 18 to 24 hrs by standard twofold serial dilution method
[22] = tested on: Staphylococcus epidermidis; assay: Antibacterial activity against methicillin-resistant Staphylococcus epidermidis 12-6 after 18 to 24 hrs by standard twofold serial dilution method
[23] = tested on: Staphylococcus epidermidis; assay: Antibacterial activity against methicillin-sensitive Staphylococcus epidermidis 12-1 after 18 to 24 hrs by standard twofold serial dilution method
[24] = tested on: Mycobacterium tuberculosis; assay: Antimycobacterial activity against Mycobacterium tuberculosis H37Rv ATCC 27294 by MABA method
[25] = tested on: Staphylococcus epidermidis; assay: Antibacterial activity against methicillin-sensitive Staphylococcus epidermidis 12-8 after 18 to 24 hrs by standard twofold serial dilution method
Staphylococcus aureus [26] = assay: Antibacterial activity against methicillin-sensitive Staphylococcus aureus 12-4 after 18 to 24 hrs by standard twofold serial dilution method
Streptococcus pneumoniae [27] = assay: Antibacterial activity against Streptococcus pneumoniae ATCC 49619 after 18 to 24 hrs by standard twofold serial dilution method
[28] = tested on: Staphylococcus epidermidis; assay: Antibacterial activity against methicillin-resistant Staphylococcus epidermidis 12-1 after 18 to 24 hrs by standard twofold serial dilution method
Staphylococcus aureus [29] = assay: Antibacterial activity against Staphylococcus aureus ATCC 25923 after 18 to 24 hrs by standard twofold serial dilution method
Klebsiella pneumoniae [30] = assay: Antibacterial activity against extended-spectrum beta-lactamase producin Klebsiella pneumoniae 12-3 after 18 to 24 hrs by standard twofold serial dilution method
Staphylococcus aureus [31] = assay: Antibacterial activity against methicillin-resistant Staphylococcus aureus 12-2 after 18 to 24 hrs by standard twofold serial dilution method
Klebsiella pneumoniae [32] = assay: Antibacterial activity against extended-spectrum beta-lactamase producin Klebsiella pneumoniae 12-4 after 18 to 24 hrs by standard twofold serial dilution method

SMILES	MIC (Escherichia coli [1]) [µg/mL]	MIC (Klebsiella pneumoniae [2]) [µg/mL]	MIC (Escherichia coli [3]) [µg/mL]	MIC (Staphylococcus aureus [4]) [µg/mL]	MIC (Pseudomonas aeruginosa [5]) [µg/mL]	MIC (Klebsiella pneumoniae [6]) [µg/mL]	MIC (Staphylococcus aureus [7]) [µg/mL]	MIC [8] [µg/mL]	MIC (Klebsiella pneumoniae [9]) [µg/mL]	MIC (Klebsiella pneumoniae [10]) [µg/mL]	MIC (Escherichia coli [11]) [µg/mL]	MIC (Escherichia coli [12]) [µg/mL]	MIC (Streptococcus pneumoniae [13]) [µg/mL]	MIC (Escherichia coli [14]) [µg/mL]	MIC (Staphylococcus aureus [15]) [µg/mL]	MIC (Pseudomonas aeruginosa [16]) [µg/mL]	MIC (Staphylococcus aureus [17]) [µg/mL]	MIC (Escherichia coli [18]) [µg/mL]	MIC [19] [µg/mL]	MIC (Klebsiella pneumoniae [20]) [µg/mL]	other results
NC[C@@H]1/C(=N\OCc2ccccc2)CN1c1cc2c(cc1F)c(=O)c(C(=O)O)cn2[C@@H]1C[C@@H]1F	128 (≈ 273 µM)	128 (≈ 273 µM)	> 128	1 (≈ 2.13 µM)	2 (≈ 4.27 µM)	2 (≈ 4.27 µM)	1 (≈ 2.13 µM)	2 (≈ 4.27 µM)	0.5 (≈ 1.07 µM)	0.5 (≈ 1.07 µM)	8 (≈ 17.1 µM)	0.25 (≈ 0.534 µM)	8 (≈ 17.1 µM)	16 (≈ 34.2 µM)	1 (≈ 2.13 µM)	32 (≈ 68.3 µM)	128 (≈ 273 µM)	> 128	1 (≈ 2.13 µM)	0.5 (≈ 1.07 µM)	MIC (Staphylococcus aureus [21]): > 128 µg/mL; MIC [22]: 8 µg/mL (≈ 17.1 µM); MIC [23]: 1 µg/mL (≈ 2.13 µM); MIC [24]: 8 µg/mL (≈ 17.1 µM); MIC [25]: 2 µg/mL (≈ 4.27 µM); MIC (Staphylococcus aureus [26]): 1 µg/mL (≈ 2.13 µM); MIC (Streptococcus pneumoniae [27]): 0.5 µg/mL (≈ 1.07 µM); MIC [28]: 32 µg/mL (≈ 68.3 µM); MIC (Staphylococcus aureus [29]): 0.25 µg/mL (≈ 0.534 µM); MIC (Klebsiella pneumoniae [30]): 128 µg/mL (≈ 273 µM); MIC (Staphylococcus aureus [31]): > 128 µg/mL; MIC (Klebsiella pneumoniae [32]): 16 µg/mL (≈ 34.2 µM)
CO/N=C1/CCN(c2c(F)cc3c(=O)c(C(=O)O)cn([C@@H]4C[C@@H]4F)c3c2Cl)CC1N (stereo partly drawn)	> 128	> 128	> 128	0.25 (≈ 0.567 µM)	16 (≈ 36.3 µM)	16 (≈ 36.3 µM)	0.25 (≈ 0.567 µM)	1 (≈ 2.27 µM)	2 (≈ 4.54 µM)	1 (≈ 2.27 µM)	2 (≈ 4.54 µM)	1 (≈ 2.27 µM)	8 (≈ 18.1 µM)	32 (≈ 72.6 µM)	0.25 (≈ 0.567 µM)	128 (≈ 290 µM)	32 (≈ 72.6 µM)	> 128	0.5 (≈ 1.13 µM)	2 (≈ 4.54 µM)	MIC (Staphylococcus aureus [21]): 64 µg/mL (≈ 145 µM); MIC [22]: 32 µg/mL (≈ 72.6 µM); MIC [23]: 0.5 µg/mL (≈ 1.13 µM); MIC [24]: 16 µg/mL (≈ 36.3 µM); MIC [25]: 4 µg/mL (≈ 9.07 µM); MIC (Staphylococcus aureus [26]): 0.25 µg/mL (≈ 0.567 µM); MIC (Streptococcus pneumoniae [27]): 1 µg/mL (≈ 2.27 µM); MIC [28]: 16 µg/mL (≈ 36.3 µM); MIC (Staphylococcus aureus [29]): 1 µg/mL (≈ 2.27 µM); MIC (Klebsiella pneumoniae [30]): > 128 µg/mL; MIC (Staphylococcus aureus [31]): 32 µg/mL (≈ 72.6 µM); MIC (Klebsiella pneumoniae [32]): 32 µg/mL (≈ 72.6 µM)
CO/N=C1/CN(c2c(F)cc3c(=O)c(C(=O)O)cn([C@@H]4C[C@@H]4F)c3c2Cl)CC1CN (stereo partly drawn)	64 (≈ 145 µM)	32 (≈ 72.6 µM)	128 (≈ 290 µM)	0.125 (≈ 0.284 µM)	1 (≈ 2.27 µM)	4 (≈ 9.07 µM)	0.125 (≈ 0.284 µM)	0.5 (≈ 1.13 µM)	0.25 (≈ 0.567 µM)	0.25 (≈ 0.567 µM)	1 (≈ 2.27 µM)	0.125 (≈ 0.284 µM)	1 (≈ 2.27 µM)	32 (≈ 72.6 µM)	0.125 (≈ 0.284 µM)	16 (≈ 36.3 µM)	16 (≈ 36.3 µM)	64 (≈ 145 µM)	0.125 (≈ 0.284 µM)	0.25 (≈ 0.567 µM)	MIC (Staphylococcus aureus [21]): 16 µg/mL (≈ 36.3 µM); MIC [22]: 4 µg/mL (≈ 9.07 µM); MIC [23]: 0.125 µg/mL (≈ 0.284 µM); MIC [24]: 4 µg/mL (≈ 9.07 µM); MIC [25]: 2 µg/mL (≈ 4.54 µM); MIC (Staphylococcus aureus [26]): 0.06 µg/mL (≈ 0.136 µM); MIC (Streptococcus pneumoniae [27]): 0.25 µg/mL (≈ 0.567 µM); MIC [28]: 4 µg/mL (≈ 9.07 µM); MIC (Staphylococcus aureus [29]): < 0.008 µg/mL; MIC (Klebsiella pneumoniae [30]): 32 µg/mL (≈ 72.6 µM); MIC (Staphylococcus aureus [31]): 16 µg/mL (≈ 36.3 µM); MIC (Klebsiella pneumoniae [32]): 16 µg/mL (≈ 36.3 µM)
CCO/N=C1/CN(c2c(F)cc3c(=O)c(C(=O)O)cn([C@@H]4C[C@@H]4F)c3c2Cl)CC1CN (stereo partly drawn)	128 (≈ 281 µM)	64 (≈ 141 µM)	> 128	0.125 (≈ 0.275 µM)	4 (≈ 8.79 µM)	4 (≈ 8.79 µM)	0.25 (≈ 0.55 µM)	1 (≈ 2.2 µM)	0.5 (≈ 1.1 µM)	1 (≈ 2.2 µM)	2 (≈ 4.4 µM)	0.5 (≈ 1.1 µM)	4 (≈ 8.79 µM)	32 (≈ 70.4 µM)	0.25 (≈ 0.55 µM)	32 (≈ 70.4 µM)	16 (≈ 35.2 µM)	128 (≈ 281 µM)	0.25 (≈ 0.55 µM)	1 (≈ 2.2 µM)	MIC (Staphylococcus aureus [21]): 16 µg/mL (≈ 35.2 µM); MIC [22]: 16 µg/mL (≈ 35.2 µM); MIC [23]: 0.5 µg/mL (≈ 1.1 µM); MIC [24]: 4 µg/mL (≈ 8.79 µM); MIC [25]: 2 µg/mL (≈ 4.4 µM); MIC (Staphylococcus aureus [26]): 0.25 µg/mL (≈ 0.55 µM); MIC (Streptococcus pneumoniae [27]): 1 µg/mL (≈ 2.2 µM); MIC [28]: 4 µg/mL (≈ 8.79 µM); MIC (Staphylococcus aureus [29]): 0.5 µg/mL (≈ 1.1 µM); MIC (Klebsiella pneumoniae [30]): 32 µg/mL (≈ 70.4 µM); MIC (Staphylococcus aureus [31]): 16 µg/mL (≈ 35.2 µM); MIC (Klebsiella pneumoniae [32]): 32 µg/mL (≈ 70.4 µM)
